From patent publication US20180245061A1, “Modified Heterocyclase” (THE UNIVERSITY COURT OF THE UNIVERSITY OF ABERDEEN, priority 2014, published 2018)

Columns and labels:
[1] = target: Lyngbya sp. LynD heterocyclase (SEQ ID NO: 1) variant E423R; test: ITC nucleotide binding (ATP/AMP) to LynD E423R; parameters: species or system Lyngbya sp. PCC 8106; conditions: 25° C., pH 7.4, 5 mM MgCl2
Procedure: (§1) Codon optimized full-length LynD (Lyngbya sp. PCC 8106) with an N-terminal TEV protease-cleavable His6-tag was purchased from DNA2.0 in the pJexpress411 plasmid. The protein was expressed in Escherichia coli BL21 (DE3) grown on auto-induction medium {Studier, 2005, Protein expression and purification, 41, 207-234} for 48 h at 20° C. Cells were harvested by centrifugation at 4,000×g, 4° C. for 15 min and re-suspended in lysis buffer (500 mM NaCl, 20 mM Tris pH 8.0, 20 mM imidazole and 3 mM β-mercaptoethanol (BME)) with the addition of complete EDTA-free protease inhibitor tablets (Roche) and 0.4 mg DNase g^−1 wet cells (Sigma). Cells were lysed by passage through a cell disruptor at 30 kPSI (Constant Systems Ltd) and the lysate was cleared by centrifugation at 40,000×g, 4° C. for 20 min. The cleared lysate was applied to a Nickel Sepharose 6 Fast Flow (GE Healthcare) column pre-washed with lysis buffer and protein eluted with 250 mM imidazole. The protein was then passed over a desalting column (Desalt 16/10, GE Healthcare) in 100 mM NaCl, 20 mM Tris pH 8.0, 20 mM imidazole, 3 mM BME. Tobacco etch virus (TEV) protease was added to the protein at a mass-to-mass ratio of 1:10 and the protein digested for 2 h at 20° C. to remove the Hiss-tag. However, removal of the Hiss-tag was not essential for activity and so less vigorous methods for purification may also be used. […]

[2] = target: Lyngbya sp. LynD heterocyclase, wild type, SEQ ID NO: 1; test: ITC nucleotide binding (ATP/AMP) to LynD; parameters: species or system Lyngbya sp. PCC 8106; conditions: 25° C., pH 7.4, 5 mM MgCl2, one-site model, stoichiometry set to 1, read-out: Nucleotide KD (AMP)
Procedure: as §1

[3] = target: Lyngbya sp. LynD heterocyclase (SEQ ID NO: 1) variant K409A; test: ITC nucleotide binding (ATP/AMP) to LynD K409A; parameters: species or system Lyngbya sp. PCC 8106; conditions: 25° C., pH 7.4, 5 mM MgCl2
Procedure: as §1

[4] = target: Lyngbya sp. LynD heterocyclase (SEQ ID NO: 1) variant R636A; test: ITC nucleotide binding (AMP) to LynD R636A; parameters: species or system Lyngbya sp. PCC 8106; conditions: 25° C., pH 7.4, 5 mM MgCl2
Procedure: as §1

[5] = target: Lyngbya sp. LynD heterocyclase (SEQ ID NO: 1) variant R636E; test: ITC nucleotide binding (ATP/AMP) to LynD R636E; parameters: species or system Lyngbya sp. PCC 8106; conditions: 25° C., pH 7.4, 5 mM MgCl2
Procedure: as §1

[6] = target: Lyngbya sp. LynD heterocyclase (SEQ ID NO: 1) variant K409E; test: ITC nucleotide binding (ATP/AMP) to LynD K409E; parameters: species or system Lyngbya sp. PCC 8106; conditions: 25° C., pH 7.4, 5 mM MgCl2
Procedure: as §1

[7] = target: Lyngbya sp. LynD heterocyclase (SEQ ID NO: 1) variant R427E; test: ITC nucleotide binding (ATP/AMP) to LynD R427E; parameters: species or system Lyngbya sp. PCC 8106; conditions: 25° C., pH 7.4, 5 mM MgCl2
Procedure: as §1

PatE′ L29R = test: ITC substrate peptide binding: PatE′ L29R; conditions: 10 μM enzyme, 150 μM peptide, 20° C.
Procedure: (§2) ITC experiments were performed using a VP-ITC instrument (MicroCal) in heterocyclization reaction buffer (150 mM NaCl, 10 mM HEPES pH7.4, 1 mM TCEP) supplemented with 5 mM MgCl2. For substrate binding experiments a cell solution of 10 μM LynD (and mutants) and a syringe solution of 150 μM PatE′ (and mutants) was prepared by diluting protein and peptide with the buffer used for dialysis. For nucleotide binding experiments, the cell concentration was increased to 20 μM, and the ATP/AMP concentration in the syringe solution was 300 μM. Substrate, and ATP experiments were performed at 20° C., and AMP experiments at 25° C. Cell and syringe solutions were degassed for 15 min at 18 and 23° C. Titration method was as follows: one injection of 2 μl followed by injections of 5 μl at 0.5 μl/min, with a delay of 4 min between every injection. The stirring speed was 307 rpm throughout. Raw data was processed using MicroCal Origin software, and the baseline was adjusted and the integrations limits were selected manually. Data was non-linearly fitted to the one-site model (Origin) setting the stoichiometry to 1.

PatE′ E31R = test: ITC substrate peptide binding: PatE′ E31R; conditions: 10 μM enzyme, 150 μM peptide, 20° C.
Procedure: as §2

PatE′ E32R = test: Heterocyclization reaction with PatE′ E32R; type: biochemical; conditions: 2 μM enzyme, 5 mM ATP, 5 mM MgCl2, 16 h at 37° C.
Procedure: (§3) For all heterocyclization reactions, […] PatE′ (and variants,) was incubated with 2 μM enzyme in 150 mM NaCl, 10 mM HEPES pH 7.4, 1 mM TCEP, 5 mM ATP and 5 mM MgCl2 for 16 h at 37° C. Samples were analyzed by ESI or MALDI MS (LCT, Micromass or 4800 MALDI TOF/TOF Analyzer, ABSciex). For cis trans activation studies, 100 μM ITACITFCAYDG synthetic test peptide (Peptide Protein Research Ltd) was reacted with 5 μM heterocyclase enzyme in the presence and absence of 5.5 μM LAELSEEAL synthetic peptide, or 5.5 μM full-length PatE′4 leader peptide. The reaction was carried out in 150 mM NaCl, 10 mM HEPES pH 7.4, 1 mM TCEP, 5 mM ATP and 5 mM MgCl2 for 16 h at 37° C. and analyzed as above. Synthetic peptides were purchased from Peptide Protein Research Ltd.

PatE′ L26R [8] = test: ITC substrate peptide binding: PatE′ L26R; conditions: 10 μM enzyme, 150 μM peptide, 20° C.
Procedure: as §2

PatE′ = test: Heterocyclization reaction with PatE′, MS analysis; type: biochemical; conditions: 5 mM ATP, 5 mM MgCl2, 16 h at 37° C.
Procedure: as §3

PatE′ L26R [9] = test: Heterocyclization reaction with PatE′ L26R; type: biochemical; conditions: 2 μM enzyme, 5 mM ATP, 5 mM MgCl2, 16 h at 37° C.
Procedure: as §3

Chain of PatE′ L26R (as listed by the source, stated change not applied): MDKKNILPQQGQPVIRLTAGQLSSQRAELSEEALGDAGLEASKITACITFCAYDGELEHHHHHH
Chain of PatE′ (as listed by the source): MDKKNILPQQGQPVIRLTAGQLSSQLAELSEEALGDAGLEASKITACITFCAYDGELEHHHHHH
Chain of PatE′ E31R (as listed by the source, stated change not applied): as the sequence (as listed by the source) above, with E31R counted along it
Chain of PatE′ L29R (as listed by the source, stated change not applied, one chain of several): as the sequence (as listed by the source) above, with L29R counted along it
Chain of PatE′ E32R (as listed by the source, stated change not applied): as the sequence (as listed by the source) above, with E32R counted along it

Molecule: Nc1ncnc2c1ncn2[C@@H]1O[C@H](COP(=O)(O)O)[C@@H](O)[C@H]1O [AMP]
- Kd [1]: 5.65 µM
- Kd [2]: 14.4 µM
- Nucleotide KD (AMP) [3]: no binding
- Nucleotide KD (AMP) [4]: no binding
- Nucleotide KD (AMP) [5]: no binding
- Nucleotide KD (AMP) [6]: no binding
- Kd [7]: 23 µM

B1: LynD: full-length cyanobactin heterocyclase LynD (Lyngbya sp. PCC 8106), SEQ ID NO: 1 (protein)
chain: MQSTPLLQIQPHFHVEVIEPKQVYLLGEQANHALTGQLYCQILPLLNGQYTLEQIVEKLDGEVPPEYIDYVLERLAEKGYLTEAAPELSSEVAAFWSELGIAPPVAAEALRQPVTLTPVGNISEVTVAALTTALRDIGISVQTPTEAGSPTALNVVLTDDYLQPELAKINKQALESQQTWLLVKPVGSVLWLGPVFVPGKTGCWDCLAHRLRGNREVEASVLRQKQAQQQRNGQSGSVIGCLPTARATLPSTLQTGLQFAATEIAKWIVKYHVNATAPGTVFFPTLDGKIITLNHSILDLKSHILIKRSQCPTCGDPKILQHRGFEPLKLESRPKQFTSDGGHRGTTPEQTVQKYQHLISPVTGVVTELVRITDPANPLVHTYRAGHSFGSATSLRGLRNTLKHKSSGKGKTDSQSKASGLCEAVERYSGIFQGDEPRKRATLAELGDLAIHPEQCLCFSDGQYANRETLNEQATVAHDWIPQRFDASQAIEWTPVWSLTEQTHKYLPTALCYYHYPLPPEHRFARGDSNGNAAGNTLEEAILQGFMELVERDGVALWWYNRLRRPAVDLGSFNEPYFVQLQQFYRENDRDLWVLDLTADLGIPAFAGVSNRKTGSSERLILGFGAHLDPTIAILRAVTEVNQIGLELDKVPDENLKSDATDWLITEKLADHPYLLPDTTQPLKTAQDYPKRWSDDIYTDVMTCVNIAQQAGLETLVIDQTRPDIGLNVVKVTVPGMRHFWSRFGEGRLYDVPVKLGWLDEPLTEAQMNPTPMPF
modifications: Lyngbya sp. PCC 8106
- KD (μM), peptide PatE′ L29R (PatE′ L29R): no binding
- KD (μM), peptide PatE′ E31R (PatE′ E31R): no binding
- No. of heterocycles, peptide PatE′ E32R (PatE′ E32R): 2
- KD (μM), peptide PatE′ L26R (PatE′ L26R [8]): no binding
- No. of heterocycles, peptide PatE′ (PatE′; 2 μM enzyme, TABLE 2): 2
- No. of heterocycles (PatE′) (PatE′; PatE′ with 2 μM enzyme, TABLE 1): 2
- No. of heterocycles, peptide PatE′ L26R (PatE′ L26R [9]): 2
